PMC13343842, “The accessory protein CvnF8 modulates histidine kinase activity in an actinobacterial G protein system in Streptomyces coelicolor” (mBio, 2026)

Target: T1, CvnA8 (Streptomyces coelicolor, UniProt Q9KYJ8, H183A)
T1 construct: truncated, two N-terminal transmembrane helices removed; printed as 'nucleotides 55–518' (probably residues 55-518); N-terminal 3x Strep tag kept; E. coli BL21(DE3); Strep-Tactin XT and SEC
Experiment: Kinase-Glo Plus luminescence ATP consumption, Michaelis-Menten fit
Type: biochemical
Conditions: 1.5 µM CvnA8 H183A, 25 mM Tris pH 8.0, 150 mM NaCl, 100 mM MgCl2, 37 °C; 0-300 µM ATP

T1 sequence (Q9KYJ8 entry or part of it H183A): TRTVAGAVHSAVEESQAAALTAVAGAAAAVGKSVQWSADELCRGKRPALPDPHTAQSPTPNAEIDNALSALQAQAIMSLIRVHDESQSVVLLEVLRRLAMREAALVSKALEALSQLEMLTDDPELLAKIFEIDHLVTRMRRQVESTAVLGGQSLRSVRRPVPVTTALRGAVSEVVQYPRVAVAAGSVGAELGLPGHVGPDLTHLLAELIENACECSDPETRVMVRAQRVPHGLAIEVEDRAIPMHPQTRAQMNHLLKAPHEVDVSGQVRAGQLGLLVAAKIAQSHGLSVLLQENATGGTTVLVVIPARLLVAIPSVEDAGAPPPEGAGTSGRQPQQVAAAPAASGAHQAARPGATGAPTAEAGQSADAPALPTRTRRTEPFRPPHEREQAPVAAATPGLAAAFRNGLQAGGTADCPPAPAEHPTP

Nc1ncnc2c1ncn2[C@@H]1O[C@H](COP(=O)(O)OP(=O)(O)OP(=O)(O)O)[C@@H](O)[C@H]1O [ATP]
Kinase-Glo Plus luminescence ATP consumption, Michaelis-Menten fit: drastically reduced in the H183A mutant, which prohibited the calculation of a nominal kcat
